{
  "source": "patent US20210147814A1",
  "about": "“METHODS FOR GENERATING PLURIPOTENT STEM CELLS” (Memorial Sloan Kettering Cancer Center, priority 2017, published 2021)",
  "key": {"[1]": {"system": "G-quadruplex (G4) DNA structure", "experiment": "G4 DNA structure formation (G4 IHC staining, G4-antibody ChIP-seq) in fibroblasts", "assay_type": "cell-based, human", "conditions": "for G4 level / G4 DNA structure formation: 4 hours; for G4 DNA structure formation: cells with high ROS levels", "method": "G4 and 8-oxoguanosine Immunostaining. Cells were fixed in 3.7% formaldehyde for 20 minutes at room temperature and washed with phosphate buffered saline (PBS). Samples were then permeabilized with 0.1 Triton X-100 in PBS for 20 minutes and blocked for 1 hour with 3% bovine serum albumin (BSA) in PBS-T, followed by incubation with primary antibodies for 2 hours at room temperature or overnight at 4° C. Anti-DNA G-quadruplex (G4) Antibody, clone 1H6 (MABE1126, EMD Millipore, Burlington, Mass.) was used for the detection of DNA G-quadruplex and ANTI-8 HYDROXYGUANOSINE AB (N45.1) AB48508 from Abcam (Cambridge, United Kingdom). Primary antibodies were used at a 1:250 dilution and 1:50 respectively. Alexa 568-conjugated goat anti-mouse IgM (A-21124) was from Molecular Probes (Eugene, Oreg.). Secondary antibodies were used at a 1:1000 dilution. The nuclei were stained with 4′,6-diamidino-2-phenylindole (DAPI, Sigma, St. Louis, Mo.). Image quantification was performed with Image J (NIH, Bethesda, Md.), quantifying mean fluorescence intensity in the nuclear regions.\nGSH and BSO Treatment, Time-Course Experiment. High ROS fibroblasts were treated by adding glutathione reduced ethyl ester (3 mM, GEE; Gold Biotechnology Inc., St. Louis, Mo.) to the media. Treated High ROS fibroblasts were then fixed and processed for staining at multiple timepoints. Low ROS fibroblasts were treated with L-Buthionine-sulfoximine (500 μM, BSO; Sigma, St. Louis, Mo.) to the media. Treated Low ROS fibroblasts were then fixed and processed for staining at multiple timepoints.\nCHIP-SEQ for G4 Structures. Chromatin immunoprecipitation (ChIP) was performed according to the published protocol (see Carey, M. F., et al., Chromatin Immunoprecipitation (ChIP), COLD SPRING HARB PROTOC (CSH Press) (2009)). Anti-DNA G-quadruplex (G4) Antibody, clone 1H6 (MABE1126, EMD Millipore, Burlington, Mass.) was used for the detection of DNA G-quadruplex."}, "pATM [2]": {"system": "pATM", "experiment": "Immunoblot of pATM after phleomycin treatment in BSO-A-iPSC", "assay_type": "cell-based", "conditions": "0.5 mM from end of reprogramming day 5, ten independent clones of A-iPSC", "method": "Immunoblot analysis. […] Secondary antibodies were from Cell Signaling (1:10,000).\nBSO treatment. BSO-A-iPSC were generated in the presence of 500 μM of L-Buthionine-sulfoximine (BSO, Sigma, B2515) starting on the end of reprogramming day 5. The treatment was kept throughout the end of reprogramming process and after picking the colonies.\nBSO-A-iPSC were generated in the presence of 500 μM of L-Buthionine-sulfoximine (BSO, Sigma B2515) starting on the end of reprogramming day 5 as previously described (see, e.g., Ji, et al. Experimental & Molecular Medicine 42:175-186 (2010))."}, "somatic cells": {"system": "somatic cells", "experiment": "Modification of cellular ROS levels in high-ROS / low-ROS somatic cells", "assay_type": "cell-based, human", "conditions": "4 hours"}, "mouse A-iPSC": {"system": "mouse A-iPSC", "experiment": "DNA damage response in mouse A-iPSC treated with GSS inhibitor", "assay_type": "cell-based", "conditions": "treatment of mouse A-iPSC; data not shown", "text": "A-iPSC have excessive levels of glutathione (FIG. 3D) and elevated ROS scavenging activity (FIG. 3E) relative to Y-iPSC or ESC. While ROS levels in A-iPSC were increased by treatment with DNA damaging agents (FIG. 3E) and this might be sufficient to cause direct DNA damage and genomic instability, improper scavenging of ROS by excess glutathione would limit the ROS cellular stress signal needed to induce the DNA damage response, which would in turn reduce apoptosis and increase A-iPSC exposure to additional genotoxic stress, allowing accumulation of mutations and other genomic alterations. Upon ZSCAN10 expression, glutathione and ROS scavenging activity were normalized to levels equivalent to those seen in Y-iPSC and ESC (FIG. 3D, 3E). In addition, shRNA knockdown of GSS in reprogrammed A-iPSC (data not shown) decreased glutathione levels and ROS scavenging activity (data not shown), increased apoptosis (FIG. 3F), and recovered the DNA damage response (FIG. 3G). The DNA damage response was also recovered by treatment of A-iPSC with the GSS pharmacological inhibitor, L-Buthionine-sulfoximine (BSO) (data not shown). Conversely, overexpression of GSS in Y-iPSC (data not shown) increased glutathione and ROS scavenging activity (data not shown), decreased apoptosis (FIG. 3F), and blunted the DNA damage response (FIG. 311)."}, "human A-iPSC": {"system": "human A-iPSC", "method": "(§1) For the generation of human A-iPSC, 10^5 skin fibroblasts such as young somatic cells (Y-SC) from MRCS and aged somatic cells (A-SC) from LS and AG4 donors aged 80 to 100 years were infected with retrovirus generated from the tetracistronic SFG-SV2 vector encoding for hOCT4, hSOX2, hKLF4, and hMYC in 6-well dishes with 0.5 mL of each viral supernatant (total 2 mL per well); and spun at 2500 rpm at RT for 90 min (BenchTop Centrifuge, BeckmanCoulter, Allegra-6R). The cells were contacted with 3 mM glutathione reduced ethyl ester prior to and during the early stage of reprogramming (from one day before reprogramming virus infection to 10 days post reprogramming virus infection).\nCopy number profiling analysis. Copy number profiling analysis was performed according to a published protocol (Baslan et al., Genome Research 25:1-11 (2015))."}, "pATM [3]": {"system": "pATM", "conditions": "A-hiPSC from AG4 fibroblasts, 3 mM from one day before to 10 days post reprogramming virus infection, phleomycin 2 h, 30 μg/mL, vs untreated A-hiPSC", "method": "as §1"}, "human AG4 fibroblasts": {"system": "human AG4 fibroblasts", "conditions": "AG4-GSH vs AG4 control, 100,000 cells each, iPSC colonies counted at day 21", "method": "as §1"}, "A-SC from AG4 donor": {"system": "A-SC from AG4 donor", "conditions": "3 mM for three days in the media", "from_the_text": "Reactive oxygen species (ROS) analysis. The production of superoxide by mitochondria can be visualized in fluorescence microscopy using the MitoSOX™ Red reagent (M36008, Thermofisher scientific). MitoSOX™ Red reagent permeates live cells where it selectively targets mitochondria. It is rapidly oxidized by superoxide but not by other reactive oxygen species (ROS) and reactive nitrogen species (RNS). The oxidized product is highly fluorescent upon binding to nucleic acid. Fluorescence microscopy was used to visualize the fluorescence and imaging software (Image J) was used to quantify the staining of the different cell lines.\nMitoSOX RED Staining. MitoSOX Red staining (MitoSOX™ Red mitochondrial superoxide indicator *for live-cell Imaging, M36008, ThermoFisher Scientific, Waltham, Mass.) was performed according to Molecular Probes/Thermo Scientific protocol. Briefly, the MitoSOX™ reagent stock solution (5 mM, prepared in HBSS/Ca/Mg or suitable buffer) was diluted to make a 5 μM MitoSOX™ reagent working solution. 1.0-2.0 mL of the 5 μM MitoSOX™ reagent working solution was applied to cover cells adhering to coverslip(s). Cells were incubated for 10 minutes at 37° C., protected from light. Cells were washed before imaging."}, "GSS": {"system": "GSS", "conditions": "A-iPSC generated with 3 mM treatment; vs untreated A-iPSC", "method": "(§2) Quantitative real time-PCT (Q-PCR) analysis. The expression levels of genes (ZSCAN10, GSS) were quantified by Q-PCR with Power SYBR Green PCR mastermix (Applied Biosystems). Total RNAs (1 μg) were reverse-transcribed in a volume of 20 μL using the M-MuLV Reverse Transcriptase system (New England Biolabs), and the resulting cDNA was diluted into a total volume of 200 μL. 10 μL of this synthesized cDNA solution was used for analysis. For pluripotent genes, each reaction was performed in a 25-μL volume using the Power SYBR Green PCR mastermix (Applied Biosystems). The conditions were programmed as follows: initial denaturation at 95° C. for 10 min followed by 40 cycles of 30 sec at 95° C., 1 min at 55° C., and 1 min at 72° C.; then 1 min at 95° C., 30 s at 55° C., and 30 sec at 95° C. All of the samples were duplicated, and the PCR reaction was performed using an Mx3005 reader (Stratagene), which can detect the amount of synthesized signals during each PCR cycle. The relative amounts of the mRNAs were determined using the MxPro program (Strategene). The amount of PCR product was normalized to the percentage of the expression level of β-actin."}, "ZSCAN10": {"system": "ZSCAN10", "conditions": "A-iPSC generated with 3 mM treatment; vs untreated A-iPSC", "method": "as §2"}},
  "note": "Read-outs that look alike come from different tables or passages of the source.",
  "data": [
    {"smiles": "CCCCS(=N)(=O)CCC(N)C(=O)O", "note": "[BSO, L-Buthionine-sulfoximine]", "values": [
      {"measurement": "G4 level", "setting": "[1]; 0.5 mM, low-ROS somatic cells", "result": "increases"},
      {"measurement": "G4 IHC staining of fibroblasts", "setting": "[1]; low ROS fibroblasts, 500 μM, time-course (FIG. 14B)", "result": "higher G4 IHC staining"},
      {"measurement": "DNA damage response (pATM immunoblot)", "setting": "pATM [2]", "result": "recovery of the DNA damage response"},
      {"measurement": "cellular ROS level", "setting": "somatic cells; 0.5 mM, low-ROS somatic cells", "result": "increases"},
      {"measurement": "DNA damage response", "setting": "mouse A-iPSC", "result": "recovered"}
    ]},
    {"smiles": "N[C@@H](CCC(=O)N[C@@H](CS)C(=O)NCC(=O)O)C(=O)O", "note": "[glutathione reduced ethyl ester]", "values": [
      {"measurement": "genomic stability (copy number profiling)", "setting": "human A-iPSC; A-hiPSC from AG4 fibroblasts, 3 mM prior to and during first 10 days of reprogramming, vs untreated A-hiPSC", "result": "maintains genomic stability"},
      {"measurement": "detected rearrangements per number of clones (copy number profiling)", "setting": "human A-iPSC; human A-iPSC with glutathione treatment, 10 clones, untreated A-hiPSC 7/11", "result": "0/10"},
      {"measurement": "DNA damage response (pATM immunoblot)", "setting": "pATM [3]", "result": "protects the DNA damage response"},
      {"measurement": "DNA damage response (pATM immunoblot)", "setting": "pATM [3]; listed as glutathione", "result": "impairs the DNA damage response"},
      {"measurement": "increase of reprogramming efficiency", "setting": "human AG4 fibroblasts", "result": "approximately 10 fold"},
      {"measurement": "G4 DNA structure formation", "setting": "[1]; 3 mM", "result": "reduces G4 DNA structure formation"},
      {"measurement": "G4 DNA structure formation", "setting": "[1]; 3 mM, listed as GEE", "result": "decreases"},
      {"measurement": "G4 IHC staining of fibroblasts", "setting": "[1]; high ROS fibroblasts, 3 mM, time-course (FIG. 14A)", "result": "lower G4 IHC staining"},
      {"measurement": "cellular ROS level", "setting": "somatic cells; 3 mM, high-ROS somatic cells", "result": "decreases"},
      {"measurement": "cellular ROS level (MitoSOX staining)", "setting": "A-SC from AG4 donor", "result": "reduces the cellular ROS level"},
      {"measurement": "GSS levels in the A-iPSC (Q-PCR)", "setting": "GSS", "result": "reduced"},
      {"measurement": "ZSCAN10 levels in the A-iPSC (Q-PCR)", "setting": "ZSCAN10", "result": "elevated"}
    ]},
    {"smiles": "NCCOc1cc(C(=O)Nc2cc(OCCN)c3ccccc3n2)nc(C(=O)Nc2cc(OCCN)c3ccccc3n2)c1", "note": "[pyridostatin]", "values": [
      {"measurement": "G4 level", "setting": "[1]; 10 μM, somatic cells", "result": "increases G4"}
    ]}
  ]
}
